Test results: ChEMBL document CHEMBL1146025, “Design, microwave-assisted synthesis, and spasmolytic activity of 2-(alkyloxyaryl)-1H-benzimidazole derivatives as constrained stilbene bioisosteres” (Bioorg Med Chem Lett, 2006)

Tests used:
[1] = organism: Rattus norvegicus; experiment: Potency index, spasmolytic activity in Wistar rat ileum relative to gigantol; type: functional
[2] = organism: Rattus norvegicus; experiment: Spasmolytic activity in Wistar rat ileum; type: functional

| IC50 [2] | SMILES | Ratio IC50 [1] | Emax [2] |
| --- | --- | --- | --- |
| 10.6 µM | COc1ccc(-c2nc3ccccc3[nH]2)cc1 | 0.55 | 54.9% |
| 30 µM | CN(C)c1ccc(-c2nc3ccccc3[nH]2)cc1 | 0.19 | 34.9% |
| 190 µM | c1ccc2[nH]c(-c3ccncc3)nc2c1 | 0.03 | 50% |
| 1.19 µM | COc1cc(-c2nc3ccccc3[nH]2)ccc1O | 4.9 | 70% |
| 5.25 µM | Oc1ccc(-c2nc3ccccc3[nH]2)cc1 | 1.11 | 61.2% |
| 5.15 µM | Oc1ccccc1-c1nc2ccccc2[nH]1 | 1.13 | 42.4% |

The next lines start with the compound.

| SMILES | IC50 [2] | Ratio IC50 [1] | Emax [2] |
| --- | --- | --- | --- |
| COc1ccccc1-c1nc2ccccc2[nH]1 | 7.7 µM | 0.75 | 52.8% |
| Cc1ccc(COc2ccccc2-c2nc3ccccc3[nH]2)cc1 | 15 µM | 0.38 | 47.7% |
| O=[N+]([O-])c1ccccc1-c1nc2ccccc2[nH]1 | 78.6 µM | 0.07 | 11.1% |
| Clc1ccc(COc2ccccc2-c2nc3ccccc3[nH]2)cc1 | 59 µM | 0.09 | 38.2% |
| CCCOc1ccccc1-c1nc2ccccc2[nH]1 | 1.9 µM | 3.06 | 80% |
| c1ccc(COc2ccccc2-c2nc3ccccc3[nH]2)cc1 | 28.2 µM | 0.21 | 51.4% |
| CCOc1ccccc1-c1nc2ccccc2[nH]1 | 1.94 µM | 3 | 50% |
| c1ccc2[nH]c(-c3ccc4c(c3)OCO4)nc2c1 | 3.4 µM | 1.71 | 59% |
| COc1ccc(Cc2nccc3cc(OC)c(OC)cc23)cc1OC [PAPAVERINE] | – | 3.76 | 96.7% |
| CCOc1ccccc1-c1nc2ccccc2n1CC | 1.72 µM | 3.39 | 60% |
| COc1cc(OC)c(-c2nc3ccccc3[nH]2)cc1OC | 4 µM | 1.45 | 90% |
| COc1ccc(-c2nc3ccccc3[nH]2)c(OC)c1OC | 1.8 µM | 3.23 | 65% |
| COc1ccc(-c2nc3ccccc3[nH]2)cc1OC | 5.6 µM | 1.04 | 55% |
